Structures can show the parent of a compound that is named as a salt. Bounds are passed on as bounds.

Broadly, the IC50 is the concentration that inhibits the measured activity by half.

One experiment has as its system lymphocyte proliferation (BALB/c responder and mitomycin C treated C57BL/6 stimulator spleen cells). The experiment in a line: Mixed Lymphocyte Reaction (Test A), one-way MLR, tritiated thymidine incorporation. Conditions: Mus musculus; concentration causing 50% inhibition of lymphocyte proliferation, by linear interpolation; ≤ = active at this concentration but not tested at lower doses. The format is cell-based, mice. On the procedure:
A mixed lymphocyte reaction (MLR) occurs when lymphocytes from two genetically dissimilar individuals, or inbred strains of mice are cultured together. An MLR results in the activation and proliferation of lymphocytes, which is measured by the incorporation of radiolabelled thymidine into the cellular DNA synthesised during cell division. A 'one-way' MLR is used to determine the immunosuppressive activity of test compounds in vitro. In this reaction one population of spleen cells serves as the stimulator cells and is treated with mitomycin C to prevent cell division. Spleen cells from a second allogeneic population (responder cells) are untreated and when mixed with the stimulator cells are able to undergo division which is measured. The degree of proliferation is measured in the presence and absence of test compound to assess the immunosuppressive activity of the compound.
The techniques for carrying out lymphocyte proliferation assays including MLRs are well known, eg Bradley, pages 156-166, in Mishell and Shiigi, Eds. Selected Methods in Cellular Immunology (Freeman, San Francisco, 1980); and Battisto et al, methods in Enzymology 1987; 150: 83-91. Various slight modifications of these techniques are in use and that used herein is described in Gibb, Webber and Bowen, J Immunological Methods 1985; 81: 107-113.
Cell suspensions obtained from the spleens of female BALB/c and C57BL/6 strain mice of between 6 and 9 weeks of age were used as sources of responder and stimulator cells respectively. The mice were killed using a rising concentration of CO2 and the spleens removed aseptically and teased using a scalpel and forceps to produce a single cell suspension in Hanks balanced salt solution (HBSS). The suspensions were filtered through cell strainers (Falcon), sedimented by centrifugation and resuspended in Tris-buffered ammonium chloride pH 7.2 (medium D) to lyse the erythrocytes. The cells were sedimented again and washed twice in HBSS before resuspending in complete RPMI 1640 tissue culture medium (medium E). The C57BL/6 cells were resuspended to 9 mls per spleen and a solution of mitomycin C at 400 µg/ml in medium E added to give a final concentration of 40 µg/ml. After incubation of the C57BL/6 cells at 37°C for 30 minutes in an atmosphere of 5% CO2 and 95% air, the cells were sedimented and washed 3 times in medium E. Both cell suspensions were diluted in medium E to 5 x 10^6 cells/ml. 100µl of each of the responder and stimulator cell suspensions were aliquoted into the wells of 96 well flat bottom microtitre plates containing 50 µl of test compound at an appropriate dilution (initially 50 µM diluted in medium E from a stock solution at 100 mM in dimethyl sulphoxide) giving a final test compound concentration of 10 µM (final dilution). Compounds active at this concentration were tested at further final dilution of 1 µM, 0.1 µM and 0.01 µM and 0.001 µM to determine the concentration of test compound which causes 50% inhibition of the immune response (IC50). After four days of culture at 37°C in a humidified atmosphere of 5% CO2 and 95% air, 1 µCi of tritiated thymidine in 20 µl of medium E was added to each well and the plates incubated for a further 24 hours. Cells were then harvested onto Inotech G7 glass fibre filter mats using an Inotech cell harvester. The filters were transferred to vials to which 2 ml of Packard Emulsifier-Safe scintillation fluid was added and the radioactivity from the incorporated thymidine was counted in a Packard liquid scintillation counter. The counts per minute (CPM) reflect the degree of lymphocyte proliferation. The data were analysed to determine the percentage inhibition of lymphocyte proliferation by the test compound. […]
In turn, `O=C(CCc1ccccc1)N1CCC(CCn2ccnc2)CC1` [Example 50, 4-[2-(imidazol-1-yl)ethyl]-1-(3-phenylpropionyl)piperidine] showed an IC50 of 200 nM. This counts as sub-micromolar.
Still for that read-out and setting: the same measure for `O=C(CCc1ccccc1)N1CCC(CCCn2ccnc2)CC1` [Example 56, 4-[3-(Imidazol-1-yl)propyl]-1-(3-phenylpropionyl)piperidine]: at most 1000 nM; for `Cc1nccn1CCC1CCN(C(=O)CCc2ccc(Cl)cc2)CC1` [Example 57, 1-[3-(4-Chlorophenyl)propionyl]-4-[2-(2-methylimidazol-1-yl)ethyl]piperidine]: at most 1000 nM.
Still for that read-out and setting: in the case of `CC(C)c1nccn1CCC1CCN(C(=O)CCc2ccccc2)CC1` [Example 58, 4-[2-(2-Isopropylimidazol-1-yl)ethyl]-1-(3-phenylpropionyl)piperidine] it was 4 nM; in that of `CCCCCCCCCCCc1nccn1CCC1CCN(C(=O)CCc2ccccc2)CC1` [Example 62, 1-(3-Phenylpropionyl)-4-[2-(2-undecylimidazol-1-yl)ethyl]piperidine], 1900 nM; in that of `Cc1nc2ccccc2n1CCC1CCN(C(=O)CCc2ccccc2)CC1` [Example 65, 2-Methyl-1-{2-[1-(3-phenylpropionyl)-piperidin-4-yl]ethyl}benzimidazole], 3800 nM.
Still for that read-out and setting: the same measure for `CCc1nccn1CC1CCN(C(=O)CCc2ccccc2)CC1` [Example 66, 4-(2-Ethylimidazol-1-ylmethyl)-1-(3-phenylpropionyl)piperidine]: at most 1000 nM; for `Cc1nccn1CCC1CCN(C(=O)CCc2ccccc2)CC1` [Example 72, 4-[2-(2-Methylimidazol-1-yl)ethyl]-1-(3-phenylpropionyl)piperidine]: 30 nM; for `Cc1nccn1CCC1CCN(C(=O)CCCc2ccccc2)CC1` [Example 82, 4-[2-(2-Methylimidazol-1-yl)ethyl]-1-(4-phenylbutyroyl)piperidine]: at most 1000 nM.
Turning to `O=C(CCCc1ccccc1)N1CCC(CCn2ccnc2)CC1` [Example 85, 4-[2-(Imidazol-1-yl)ethyl]-1-(4-phenylbutyroyl)piperidine], half-maximal inhibition (IC50) required 600 nM.
Still for that read-out and setting: the same measure for `c1ccc(SCCN2CCC(CCn3ccnc3)CC2)cc1` [Example 86, 4-[2-(imidazol-1-yl)ethyl]-1-(2-phenylthioethyl)piperidine]: 2600 nM; for `Cc1ccc(CCC(=O)N2CCC(CCn3ccnc3C)CC2)cc1` [Example 94, 4-[2-(2-methylimidazol-1-yl)ethyl]-1[3-(4-methylphenyl)propionyl]piperidine]: at most 1000 nM.
Same read-out and setting: in the case of `c1ccc(CCCN2CCN(CCn3ccnc3)CC2)cc1` [Example 95, 1-[2-imidazol-1-yl)ethyl]-4-(3-phenylpropyl)piperazine trihydrochloride] it was 2800 nM.
Still for that read-out and setting: in the case of `c1ccc(CCCC2CCN(CCn3cncn3)CC2)cc1` [Example 97, 1-[2-(1H-1,2,4-triazol-1-yl)ethyl]-4-(3-phenylpropyl)-piperidine dihydrochloride] it was 2300 nM; in that of `Cc1nccn1CCC1CCN(CCCc2ccc(Cl)cc2)CC1` [Example 105, 1-[3-(4-Chlorophenyl)propyl]-4-[2-(2-methylimidazol-1-yl)ethyl]piperidine], at most 1000 nM; in that of `c1ccc(CCCN2CCC(CCn3cnc(-c4ccccc4)c3-c3ccccc3)CC2)cc1` [Example 108, 4-[2-(4,5-Diphenylimidazol-1-yl)ethyl]-1-(3-phenylpropyl)piperidine], 1200 nM.
`c1ccc(CCCN2CCC(CCn3ccnn3)CC2)cc1` [Example 119, 1-(3-Phenylpropyl)-4-[2-(1H-1,2,3-triazol-1-yl)ethyl]piperidine] had an IC50 of 2400 nM.

Still in this experiment, the particulars now being: concentration causing 50% inhibition of lymphocyte proliferation, by linear interpolation; ≤ = active at this concentration but not tested at lower doses.
In the case of “4-[2-(4-Methylimidazol-1-yl)ethyl]-1-(3-phenylpropyl)piperidine and 4-[2-(5-Methylimidazol-1-yl)ethyl]-1-(3-phenylpropyl)piperidine [Example 118]”, the IC50 was 1400 nM. In other words, the single-digit micromolar range.

Another experiment has as its system tumour necrosis factor-α (TNF-α). As to the kind of experiment: Mouse Tumour Necrosis Factor Test (Test B), mouse endotoxin shock model, serum TNF-α by ELISA. Conditions: Mus musculus; minimum effective oral dose giving significant reduction in serum TNF-α of ≥35%; dosed 2 h before LPS i.p.; ≤ = active at dose given but not tested at lower doses; read-out: MTNF:MED. The format is in vivo, BALB/c mice. The source says:
Preferred compounds of the present invention are active in an in-vivo test which determines the ability of the compounds to inhibit the release of tumour necrosis factor-α (TNF-α) in a mouse endotoxin shock model (Test B). This model is similar to that described by Zuckerman and Bendele (1989), Infection and Immunity 57 (10): p3009-3013.
Each compound of formula I was combined with a carrier of a solution of 1.5% v/v sorbitan esters under the trade name Tween 80 and 0.25% v/v cellosize in sterile water (100 µl) and was administered orally to a group of four BALB/c mice. The concentration of compound was such as to provide dosages selected from 100, 30, 10, 3, 1, 0.1 and 0.03 mg/kg. Two hours after such oral administration, lipopolysaccharide (LPS) (E. coli 0127:B8) (100 µg) in sterile water (0.2 ml) was administered intraperitoneally to the test mice.
A control group of eight BALB/c mice was treated in a similar manner as the test group except that no test compound was included with the carrier.
One hour after LPS administration the mice were killed and blood was collected by cardiac puncture. The blood was incubated at 20°C for 2 hours and the serum was separated from the clotted blood following centrifugation. Serum tumour necrosis factor-α (TNF-α) levels were assayed by an enzyme-linked immunosorbent assay (ELISA) and the concentration of TNF-α in each of the drug-treated groups was compared with the control group by one-way analysis of variance followed by a multiple t-test.
The ELISA was carried out by coating a 96-well vinyl assay plate (Costar) overnight at 4°C with 50 µl per well of 2 µg/ml hamster anti-mouse TNF monoclonal antibody in 0.1M sodium hydrogen carbonate buffer at pH 8.2. After washing the plate with phosphate buffered saline (PBS) containing 0.05% v/v sorbitan esters under the trade name Tween 20 (wash buffer), a blocking/dilution buffer (10% sheep serum in PBS containing 0.1% v/v sorbitan esters under the trade name Tween 20 (200 µl)) was aliquoted to each well and incubated at 37°C for 0.5 hours. After aspirating the blocking buffer, the serum samples and pure TNF (as a standard) diluted in blocking/dilution buffer, were added to the wells and incubated at 37°C for 2 hours. After washing with the wash buffer, a polyclonal rabbit anti-mouse TNF-α antibody in blocking/dilution buffer (100 µl of a 1 in 10,000 dilution) was added and incubated for a further 1.5 hours at 37°C. After further washes, anti-rabbit IgG peroxidase conjugate (100 µl of a 1 in 4000 dilution) was added and incubated at 37°C for 0.5 hours. After further washing, the substrate solution (100 µl per well of 0.1 mg/ml 3,3', 5,5'-tetramethylbenzidine dihydrochloride in 0.1M phosphate citrate buffer, pH 5.0, to which 2 µl of 30% hydrogen peroxide per 10 ml was added just before use) was added and the colour allowed to develop. The reaction was stopped by the addition of 1M sulphuric acid (25 µl) and the optical density read in a multichannel spectrophotometer at 450 nm. The mean TNF-α concentration was determined by comparison with the standard curve and the mean TNF-α concentration for each group compared with that produced by the control group. Drug treatments which cause a statistically significant reduction in TNF-α concentration of ≥35% at a single dose at 100 mg/kg or less were considered active.
On the technique in general: ELISA stands for enzyme-linked immunosorbent assay.
For `Cl.Cl.O=C(CCc1ccccc1)N1CCCCC1CCn1ccnc1` (stereo not drawn) [Example 52, 2-[2-(Imidazol-1-yl)ethyl]-1-(3-phenylpropionyl)piperidine dihydrochloride], the minimal effective dose was 100 mg/kg.
On the same count and under the same terms, the same measure for `O=C(CCc1ccccc1)N1CCCC(Cn2ccnc2)C1` (stereo not drawn) [Example 53, 3-Imidazol-1-ylmethyl-1-(3-phenylpropionyl)-piperidine]: 30 mg/kg; for `Cc1nccn1CCC1CCN(C(=O)CCc2ccc(Cl)cc2)CC1` [Example 57, 1-[3-(4-Chlorophenyl)propionyl]-4-[2-(2-methylimidazol-1-yl)ethyl]piperidine]: 100 mg/kg; for `c1ccc(SCCN2CCC(CCn3ccnc3)CC2)cc1` [Example 86, 4-[2-(imidazol-1-yl)ethyl]-1-(2-phenylthioethyl)piperidine]: at most 10 mg/kg.
On to `O=C(CCN1CCC(CCn2ccnc2)CC1)c1ccccc1` [Example 89, 4-[2-(Imidazol-1-yl)ethyl]-1-(3-oxo-3-phenylpropyl)piperidine], for which the minimal effective dose was at most 30 mg/kg.
Regarding `O=C(c1ccccc1Cl)c1nccn1CCC1CCN(CCCc2ccccc2)CC1` [Example 92, 4-{2-[2-(2-Chlorobenzoyl)imidazol-1-yl]-ethyl}-1-(3-phenylpropyl)piperidine], the minimal effective dose was at most 10 mg/kg.
Same read-out and setting: in the case of `c1ccc(CCCN2CCN(CCn3ccnc3)CC2)cc1` [Example 95, 1-[2-imidazol-1-yl)ethyl]-4-(3-phenylpropyl)piperazine trihydrochloride] it was at most 3 mg/kg.
Same read-out and setting: the same measure for `COc1ccc(CCCN2CCC(CCn3ccnc3)CC2)cc1` [Example 124, 4-[2-(Imidazol-1-yl)ethyl]-1-[3-(4-methoxyphenyl)propyl]piperidine]: at most 30 mg/kg.

Staying with this experiment, now noted: minimum effective oral dose giving significant reduction in serum TNF-α of ≥35%; dosed 2 h before LPS i.p.; ≤ = active at dose given but not tested at lower doses.
Turning to “4-[2-(4-Methylimidazol-1-yl)ethyl]-1-(3-phenylpropyl)piperidine and 4-[2-(5-Methylimidazol-1-yl)ethyl]-1-(3-phenylpropyl)piperidine [Example 118]”, the “MTNF:MED” value was at most 100 mg/kg.

The values are drawn from patent EP0705258B1, “AZOLYL-CYCLIC AMINE DERIVATIVES WITH IMMUNOMODULATORY ACTIVITY” (Knoll AG, priority 1993, dated 1995).
